Assay results taken from patent US4705799A, “Aminomethyl oxooxazolidinyl benzenes useful as antibacterial agents” (E. I. Du Pont de Nemours and Company, priority 1985, dated 1987).
≈ marks a conversion by molar mass, not a printed value. Where a name gives a salt, the structure may show the parent alone. Read-outs that look alike come from different tables or passages of the source.

Columns and labels:
[1] = tested on: Staphylococcus epidermidis; assay: In vitro broth dilution minimal inhibitory concentration (standard microdilution method); assay type: cell-based; settings: 24 h, read-out: Microdilution Broth MIC
Escherichia coli = assay: as above; assay type: cell-based; settings: Escherichia coli, read-out: Microdilution Broth MIC
Staphylococcus aureus [2] = assay: In vivo efficacy of orally administered compounds in mouse intraperitoneal infections; settings: Staphylococcus aureus, po, 168 h, read-out: ED50 (50 percent effective dose)
Experimental: (§1) Determinations of in vivo efficacy are performed by inoculating mice intraperitoneally with cultures of the infecting organism diluted to produce 90-100% mortality in control animals within twenty-four hours. The diluents used were trypticase soy broth for E. coli and 5% aqueous hog gastric mucin for Staphylococcus aureus infections. The compounds are dissolved or suspended in 0.25% aqueous Methocel® (Methocel®: Hydroxypropyl Methylcellulose E15 Premium, Dow Chemical Company) for oral administration or sterile distilled water containing 5% dimethylsulfoxide (Fisher Scientific Company, Fairlawn, N.J.) for subcutaneous administration. The mice are dosed at the time of infection and again at four hours post-infection. Mortality is recorded daily until test termination seven days post infection and the 50 percent effective dose, ED50, is calculated by the Reed-Muench method (Reed, L. G. and Muench, H., "A simple method of estimating fifty percent end points," American Journal of Hygiene, 27, 493-497 (1938).

Staphylococcus aureus [3] = assay: In vivo efficacy of compounds administered subcutaneously in mouse intraperitoneal infections; settings: sc, 168 h; mouse i.p. Staphylococcus aureus infection; subcutaneous; dosed at infection and 4 h post-infection; 7 days; read-out: ED50 (50 percent effective dose)
Experimental: as §1

[4] = mouse i.p. Staphylococcus aureus infection, oral, dosed at infection and 4 h post-infection, 7 days

Row | MIC ([1]; Mueller-Hinton broth, 24-hour) [µg/mL] | MIC (Escherichia coli; Mueller-Hinton broth, 24-hour) [µg/mL] | SMILES | ED50 (Staphylococcus aureus [2]; [4]) [mg/kg] | ED50 (Staphylococcus aureus [3]) [mg/kg] | MIC [1] [µg/mL] | MIC (Escherichia coli; 24 h) [µg/mL] | ED50 (Staphylococcus aureus [2]) [mg/kg]
1 | 50 | > 100 | CS(=O)(=O)c1ccc(N2CC(CN)OC2=O)cc1 (racemic) [Example 10, (dl)-5-Aminomethyl-3-[4-(methylsulfonyl)phenyl]-2-oxazolidinone trifluoroacetic Acid Salt] |  |  |  |  | 
2 | 50 (≈ 172 µM) | > 200 | CC(C)c1ccc(N2CC(CNC(=O)CN)OC2=O)cc1 (racemic) [Example 157, (dl)-2-Amino-N-[3-[4-(1-methylethyl)phenyl]-2-oxooxazolidin-5-ylmethyl]acetamide] | 58.9 | 19.6 |  |  | 
3 | > 100 | > 100 | NCC1CN(c2ccc(S(N)(=O)=O)cc2)C(=O)O1 (single isomer, unassigned) [Example 12, (l)-4-[5-(Aminomethyl)-2-oxooxazolidin-3-yl]benzenesulfonamide] | 179 | 89.8 |  |  | 
4 | > 100 | > 100 | NS(=O)(=O)c1ccc(N2CC(CNC=O)OC2=O)cc1 (single isomer, unassigned) [Example 24, (l)-N-[3-[4-(Aminosulfonyl)phenyl]-2-oxooxazolidin-5-ylmethyl]formamide] | 74.3 |  |  |  | 
5 | 3.1 (≈ 10.7 µM) | 100 (≈ 344 µM) | CC(=O)NCC1CN(c2ccc(C(C)=NN)cc2)C(=O)O1 (single isomer, unassigned) [Example 131, (l)-N-[3-[4-(1-Hydrazonoethyl)phenyl]-2-oxo-5-oxazolidinylmethyl]acetamide] | < 4.4 | < 4.4 |  |  | 
6 |  |  | CC(=O)NCC1CN(c2ccc([N+](=O)[O-])cc2[N+](=O)[O-])C(=O)O1 (single isomer, unassigned) [Example 147, (l)-N-[3-(2,4-Dinitrophenyl)-2-oxooxazolidin-5-ylmethyl]acetamide] |  |  | 200 (≈ 617 µM) | > 200 | 44.4
7 | 200 (≈ 687 µM) | > 200 | CC(=O)NCC1CN(c2ccc(NC(C)=O)cc2)C(=O)O1 (single isomer, unassigned) [Example 150, (l)-N-[3-[4-(Acetylamino)phenyl]-2-oxooxazolidin-5-ylmethyl]acetamide] | 56.9 | 12.5 |  |  | 
8 | 3.2 (≈ 10.5 µM) | > 200 | CC(=O)NCC1CN(c2ccc(SCC#N)cc2)C(=O)O1 (single isomer, unassigned) [Example 154, (l)-N-[3-[4-(Cyanomethylthio)phenyl]-2-oxooxazolidin-5-ylmethyl]acetamide] |  |  |  |  | 
9 | 12.5 (≈ 40.9 µM) | > 200 | CON=C(C)c1ccc(N2CC(CNC(C)=O)OC2=O)cc1 (single isomer, unassigned) [Example 160, (l)-N-[3-(4-Acetylphenyl)-2-oxooxazolidin-5-ylmethyl]acetamide Oxime, methyl ether] | < 4.4 | < 4.4 |  |  | 
10 | 32 (≈ 96.6 µM) | > 128 | CC(=O)NCC1CN(c2ccc(C(=O)C=CN(C)C)cc2)C(=O)O1 (single isomer, unassigned) [Example 162] | 11.3 | 20.9 |  |  | 
11 | 64 (≈ 196 µM) | > 128 | CC(=O)NCC1CN(c2ccc(CBr)cc2)C(=O)O1 (single isomer, unassigned) [Example 166, (l)-N-[3-[4-(Bromomethyl)phenyl]-2-oxooxazolidin-5-ylmethyl]acetamide] |  |  |  |  | 
12 | 3.1 (≈ 9.99 µM) | > 200 | CC(=O)NCC1CN(c2ccc(SCCO)cc2)C(=O)O1 (single isomer, unassigned) [Example 167, (l)-N-[3-[4-(2-Hydroxyethylthio)phenyl]-2-oxooxazolidin-5-ylmethyl]acetamide] | 68.2 | 10.8 |  |  | 
13 | > 128 | > 128 | CC(=O)c1ccc(N2CC(CN)OC2=O)cc1 (single isomer, unassigned) [Example 170, (l)-3-(4-Acetylphenyl)-5-(aminomethyl)-2-oxazolidinone hydrochloride] | 32.3 | 25.3 |  |  | 
14 | 0.5 (≈ 1.5 µM) | 64 (≈ 191 µM) | CC(=O)NCC1CN(c2ccc(C(=O)COC(C)=O)cc2)C(=O)O1 (single isomer, unassigned) [Example 183, (l)-N-[3-[4-(Acetyloxyacetyl)phenyl]-2-oxo-5-oxazolidinylmethyl]acetamide] | 9.1 | 3.4 |  |  | 
15 | 4 (≈ 13.7 µM) | > 128 | COC(=O)c1ccc(N2CC(CNC(C)=O)OC2=O)cc1 (single isomer, unassigned) [Example 184, (l)-4-[(5-Acetylaminomethyl)-2-oxo-3-oxazolidinyl]benzoic acid methyl ester] | > 60 | 37.5 |  |  | 
16 | > 128 | > 128 | CC(=O)NCC1CN(c2ccc(C=O)cc2)C(=O)O1 (single isomer, unassigned) [Example 185, (l)-N-[3-(4-Formylphenyl)-2-oxo-5-oxazolidinylmethyl]acetamide] |  | 35.9 |  |  | 
17 | > 200 | > 200 | CSc1ccc(N2CC(CN=[N+]=[N-])OC2=O)cc1 (centres unmarked) [Example 4] | 43.3 |  |  |  | 
18 | 200 (≈ 768 µM) | > 200 | CC(=O)c1ccc(N2CC(CN=[N+]=[N-])OC2=O)cc1 (centres unmarked) [Example 5] | 172 | 41.2 |  |  | 
19 | 100 (≈ 384 µM) | > 200 | CC(C)c1ccc(N2CC(CN=[N+]=[N-])OC2=O)cc1 (centres unmarked) [Example 7] | 24.2 | 33.7 |  |  | 
20 | > 200 | > 200 | CC(=O)c1ccc(N2CC(CN)OC2=O)cc1 (centres unmarked) [Example 15] | 40 | 24.9 |  |  | 
21 | > 200 | > 200 | CC(C)c1ccc(N2CC(CN)OC2=O)cc1 (centres unmarked) [Example 17] | > 120 | 24.9 |  |  | 
22 | 12.5 (≈ 34.1 µM) | 50 (≈ 136 µM) | CS(=O)(=O)c1ccc(N2CC(CNC(=O)C(F)(F)F)OC2=O)cc1 (centres unmarked) [Example 28] | 71.3 |  |  |  | 

Row | MIC ([1]; Mueller-Hinton broth, 24-hour) [µg/mL] | MIC (Escherichia coli; Mueller-Hinton broth, 24-hour) [µg/mL] | SMILES | ED50 (Staphylococcus aureus [2]; [4]) [mg/kg] | ED50 (Staphylococcus aureus [3]) [mg/kg] | MIC [1] [µg/mL] | MIC (Escherichia coli; 24 h) [µg/mL] | ED50 (Staphylococcus aureus [2]) [mg/kg]
23 | 12.5 (≈ 36.7 µM) | 100 (≈ 294 µM) | CCCC(=O)NCC1CN(c2ccc(S(C)(=O)=O)cc2)C(=O)O1 (centres unmarked) [Example 29] | 88.7 |  |  |  | 
24 | 25 (≈ 66.8 µM) | > 200 | CS(=O)(=O)c1ccc(N2CC(CNC(=O)c3ccccc3)OC2=O)cc1 (centres unmarked) [Example 34] | > 120 | 49.6 |  |  | 
25 | 25 (≈ 76.4 µM) | 200 (≈ 611 µM) | CNC(=O)NCC1CN(c2ccc(S(C)(=O)=O)cc2)C(=O)O1 (centres unmarked) [Example 35] | 35.8 |  |  |  | 
26 | 200 (≈ 724 µM) | > 200 | CC(=O)NCC1CN(c2cccc(C(C)=O)c2)C(=O)O1 (centres unmarked) [Example 37] | 62.9 |  |  |  | 
27 | 12.5 (≈ 42.8 µM) | > 200 | C=CC(=O)NCC1CN(c2ccc(SC)cc2)C(=O)O1 (centres unmarked) [Example 40] | 53.1 |  |  |  | 
28 | 100 (≈ 314 µM) | > 200 | COC(=O)NCC1CN(c2ccc(C(F)(F)F)cc2)C(=O)O1 (centres unmarked) [Example 42] | 45.5 | 20.9 |  |  | 
29 | 100 (≈ 378 µM) | > 200 | COc1ccc(N2CC(CNC(C)=O)OC2=O)cc1 (centres unmarked) [Example 44] | 30.3 |  |  |  | 
30 | 37.5 (≈ 114 µM) | > 200 | COC(=O)NCC1CN(c2ccc(S(N)(=O)=O)cc2)C(=O)O1 (centres unmarked) [Example 45] | > 120 | 9.6 |  |  | 
31 | 50 (≈ 140 µM) | > 200 | CCCOC(=O)NCC1CN(c2ccc(S(C)(=O)=O)cc2)C(=O)O1 (centres unmarked) [Example 70] | 51.7 |  |  |  | 
32 | > 200 | > 200 | COC(OC)C(=O)NCC1CN(c2ccc(SC)cc2)C(=O)O1 (centres unmarked) [Example 73] | 59.5 |  |  |  | 
33 | 100 (≈ 269 µM) | > 200 | COC(OC)C(=O)NCC1CN(c2ccc(S(C)(=O)=O)cc2)C(=O)O1 (centres unmarked) [Example 74] | 96.6 |  |  |  | 
34 | > 200 | > 200 | CCOC(OCC)C(=O)NCC1CN(c2ccc(SC)cc2)C(=O)O1 (centres unmarked) [Example 75] | 130 |  |  |  | 
35 | > 200 | > 200 | CCOC(OCC)C(=O)NCC1CN(c2ccc(S(C)(=O)=O)cc2)C(=O)O1 (centres unmarked) [Example 76] | 58 |  |  |  | 
36 | 200 (≈ 638 µM) | > 200 | CS(=O)(=O)c1ccc(N2CC(CNC(N)=O)OC2=O)cc1 (centres unmarked) [Example 77] |  | 70.9 |  |  | 
37 | > 200 | > 200 | CS(=O)(=O)c1ccc(N2CC(CNC(=O)C(N)c3ccccc3)OC2=O)cc1 (centres unmarked) [Example 78] |  | 67.1 |  |  | 
38 | 25 (≈ 81.1 µM) | > 200 | C=CC(=O)NCC1CN(c2ccc([S+](C)[O-])cc2)C(=O)O1 (centres unmarked) [Example 91] | 50.7 |  |  |  | 
39 | 50 (≈ 152 µM) | > 200 | CSc1ccc(N2CC(CNC(=O)CCCl)OC2=O)cc1 (centres unmarked) [Example 92] | 31 |  |  |  | 
40 | 50 (≈ 145 µM) | > 200 | C[S+]([O-])c1ccc(N2CC(CNC(=O)CCCl)OC2=O)cc1 (centres unmarked) [Example 93] | > 120 |  |  |  | 
41 | 12.5 (≈ 43.4 µM) | > 50 | CC(=O)NCC1CN(c2ccc(C#CCO)cc2)C(=O)O1 (centres unmarked) [Example 103] |  |  |  |  | 
42 | 32 (≈ 109 µM) | > 128 | CC(=O)NCC1CN(c2ccc(C(O)CO)cc2)C(=O)O1 (centres unmarked) [Example 104] |  |  |  |  | 
43 | 64 (≈ 242 µM) | > 128 | CC(=O)NCC1CN(c2ccc(CO)cc2)C(=O)O1 (centres unmarked) [Example 106] |  |  |  |  | 
